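Cultured in 96-well plates, cells were exposed to test compound for 48 hours across five concentrations. Abbreviation: GI50, concentration required for 50% inhibition of growth. TGI: concentration producing complete growth inhibition.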

Data on seven compounds can be found in PubChem BioAssay (NCI).

Among the test systems are EKVX NSCLC; HOP-92 NSCLC; KM12 colon; M14 melanoma; MALME-3M melanoma; MDA-MB-231 breast; MDA-N; PC-3 prostate; RPMI-8226 leukemia; SK-MEL-28 melanoma; SN12C renal; HOP-18 NSCLC.
Test in all cases: NCI-60 cell line screen, 48 h

On to `COC(C/C=C\C=C\CC/C=C/CC(C)/C=C/C(=C\C(=O)O)CC(=O)O)/C(C)=C\C=C(/C)C(=O)O` (configuration not stated), for which the TGI in the assay with EKVX NSCLC, in the assay with HOP-92 NSCLC, in the assay on KM12 colon, in the assay on M14 melanoma, with MALME-3M melanoma and in the assay on MDA-MB-231 breast was more than 100 µM each time. The TGI in the assay with MDA-N, in the assay with PC-3 prostate, with RPMI-8226 leukemia, with SK-MEL-28 melanoma and in the assay on SN12C renal was more than 100 µM in each case.
For `CCOC(=O)/C(C1=N[C@H](C(=O)OCC)CS1)=C(\O)c1ccccc1`, the TGI in the assay on EKVX NSCLC, in the assay on HOP-18 NSCLC, in the assay with KM12 colon, with M14 melanoma, in the assay on MALME-3M melanoma and with RPMI-8226 leukemia was more than 100 µM each time. Also, the TGI with SK-MEL-28 melanoma and in the assay on SN12C renal was more than 100 µM in each case.
Turning to `NNc1nnc(-c2ccccc2)nc1Cc1ccccc1`, the TGI is more than 100 µM in the assay with EKVX NSCLC; 7.25 µM in the assay with HOP-18 NSCLC; more than 100 µM in the assay with KM12 colon; 45.5 µM with M14 melanoma; 26.3 µM with MALME-3M melanoma; more than 100 µM with SK-MEL-28 melanoma. Moreover, the TGI with SN12C renal turned out to be 51.6 µM.
As to `Cn1cnc(/C=C/C#N)c1`, the TGI with EKVX NSCLC, in the assay on HOP-92 NSCLC, in the assay with KM12 colon, with M14 melanoma, in the assay on MALME-3M melanoma and in the assay on MDA-MB-231 breast was more than 100 µM in each case. For the same compound, the TGI in the assay with MDA-N, in the assay with PC-3 prostate, with SK-MEL-28 melanoma and with SN12C renal was more than 100 µM each time.
For the compound `COc1ccc(-c2cc(-c3ccc(OC)c(OC)c3)nc(SCCCC(=O)NO)n2)cc1`, the GI50 is 1.73 µM in the assay with EKVX NSCLC; 1.5 µM in the assay with HOP-92 NSCLC; 2.23 µM in the assay on KM12 colon; 0.896 µM in the assay on MALME-3M melanoma; 1.94 µM in the assay with MDA-MB-231 breast; 2.07 µM with PC-3 prostate. Further, the GI50 with RPMI-8226 leukemia is 0.752 µM. Further, the TGI in the assay on EKVX NSCLC was more than 100 µM; in the assay with HOP-92 NSCLC it was 5.63 µM; in the assay with KM12 colon, more than 100 µM; with MALME-3M melanoma, 4.88 µM; with MDA-MB-231 breast it was 8.78 µM; with PC-3 prostate it was more than 100 µM. This compound showed a TGI in the assay on RPMI-8226 leukemia of 6.21 µM.
Turning to `Cc1cc(=O)[nH]c(NN2C(Cl)C(=O)C2c2ccco2)n1` (configuration not stated), the TGI is more than 100 µM with EKVX NSCLC; 58.8 µM in the assay with HOP-18 NSCLC; 69.8 µM in the assay with HOP-92 NSCLC; more than 100 µM in the assay on KM12 colon; more than 100 µM with M14 melanoma; 38.3 µM in the assay with RPMI-8226 leukemia. Besides, the TGI in the assay on SN12C renal was determined as 77 µM.
`CCOC(=O)NC(OCc1ccccc1)(C(=O)OC)C(F)(F)F` (configuration not stated): the TGI with EKVX NSCLC, with HOP-92 NSCLC, in the assay on KM12 colon, in the assay with M14 melanoma, in the assay on MDA-MB-231 breast and in the assay on MDA-N was more than 100 µM each time. Besides, the TGI with PC-3 prostate, in the assay with RPMI-8226 leukemia, with SK-MEL-28 melanoma and in the assay on SN12C renal was more than 100 µM throughout.
